How the values were obtained:
[1] = test system: neuron loss following brain ischemia and reperfusion injury; experiment: neuronal density, post-ischemia treatment, compound i.p. 30 min after reperfusion following 5 min ischemia (Example 4); format: in vivo, gerbil
[2] = test system: neuron loss following brain ischemia and reperfusion injury; experiment: neuronal density after 5 min bilateral carotid occlusion, compound i.p. 30 min before ischemia (Example 3); format: in vivo, gerbil; conditions: for Neuronal nuclei/100 micron field: 30 min before ischemia
Protocol: In the experiments a test compound was administered to groups of six gerbils i.p. as a single dose 30 min before 5 min bilateral carotid occlusion. The density of neuronal nuclei in a 100 micron was measured. Two controls were present--controls which received no test compound and controls which received no test compound and no brain ischemia.

[3] = test system: infarct volume following middle cerebral occlusion; experiment: infarct volume after middle cerebral occlusion (Example 7); format: in vivo, C57BL/6J mice; conditions: from 60 min after occlusion for 24 hours
Protocol: The ability of the compound of the invention to reduce infarct volume following an ischemic event was determined.

[4] = test system: creatine kinase (CK); experiment: protection of creatine kinase against βAP 25-35 (Example 11); format: biochemical, gerbil; conditions: co-incubation with 0.4 mg/ml BAP 25-35
Protocol: (§1) Cytosolic fractions from gerbil neocortex were prepared and enzyme activities determined. Samples were incubated in the presence of different concentrations of the peptide for 10 min prior to assay. Solid symbols represent the effects of the naturally occurring 25-35 fragment. […] Each point is the mean (+/- s.e.) of 5 observations. βAP derived and other cellular sources of free radicals are an important determinant of the initiation and progression of AD.
(§2) Each point is the mean (+/- s.e.) of 3 observations.

[5] = test system: glutamine synthetase (GS); experiment: protection of glutamine synthetase against βAP 25-35 (Example 11); format: biochemical, gerbil; conditions: co-incubation with 0.4 mg/ml BAP 25-35
Protocol: as §1, §2

[6] = test system: Sprague Dawley rats; experiment: acute toxicity in male Sprague Dawley rats (Example 14); format: in vivo, rat; conditions: 1000 mg/kg i.p., after 3 days
Protocol: The compounds were administered at 1000 mg/kg, i.p., to groups of 6 rats. After 3 days lethality was assessed.

[7] = test system: acute lethal effects of adriamycin; experiment: comparative tests: nitrone pretreatment combined with adriamycin (Example 13); format: in vivo, mouse; conditions: doses of Compound I up to 300 mg/kg with adriamycin
Source text: (§3) All injections were intraperitoneal.

[8] = test system: lethality from 10 min ischemia; experiment: lethality protection in aged gerbils from 10 min ischemia (Example 8); format: in vivo, gerbil; conditions: 30 min before ischemia
[9] = test system: acute lethal effects of adriamycin; experiment: adriamycin acute lethality and its prevention by pretreatment, C57BL/6J mice (Example 13); format: in vivo; conditions: up to 300 mg/kg i.p., without adriamycin
Source text: as §3

[10] = test system: infarct volume following middle cerebral artery occlusion; experiment: rat focal ischemia model, permanent middle cerebral artery occlusion (Example 12); format: in vivo, Sprague Dawley rats; conditions: both studies: 100 mg/kg i.p. then 4.2 mg/kg/hr i.v., or 10 mg/kg i.p. then 0.42 mg/kg/hr i.v., up to 24 h; 3 days post stroke
Source text: A pair of studies were done to determine the efficacy of Compound I in a rat focal ischemia model. In this model, Sprague Dawley rats (200-300 g) underwent a permanent middle cerebral artery occlusion (MCAO) to induce a focal stroke.
The rats were sacrificed 3 days post stroke, the tissue was processed histologically using triphenyltetrazolium staining techniques, and the infarct volume, the area of total cell necrosis, was quantitated using image analysis.

[11] = test system: neuronal loss following ischemia; experiment: protection from neuronal loss, i.v. 60 min after reperfusion onset following 5 min ischemia (Example 5); format: in vivo, gerbil; conditions: for protection for neuronal loss (neuronal density): 60 min after reperfusion onset
[12] = doses demonstrated to be possible; conditions: up to and higher
[13] = test system: temporal/spatial short term memory following ischemia; experiment: 8-arm radial maze test 24 hours after ischemia (Example 6); format: in vivo, gerbil
Protocol: Brain injury can manifest itself as behavioral changes. In this experiment, young adult (3-4 months of age) gerbils were tested to determine their ability to perform an 8-arm maze test 24 hours following an ischemic event as described in Example 1. As compared to nonischemic animals, when untreated they committed many more errors. PBN and compound I were administered to some of the test animals.

[14] = solubility in water; format: physicochemical; conditions: free acid
[15] = body temperature depression (Example 10); format: in vivo; conditions: levels as high as 1000 mg/kg, mice and gerbils
Source text: Another undesirable systemic effect which has been observed in vivo with nitrone radical traps is a depression in body temperature. This toxicity can have serious health consequences and also can complicate diagnosis of other conditions.

[16] = test system: acute lethal effects of adriamycin; experiment: adriamycin acute lethality and its prevention by pretreatment, DBA/2J mice (Example 13)
Protocol: (§4) All injections were intraperitoneal. The acute lethality of adriamycin ranged from 10 to 30 mg/kg.

[17] = adriamycin acute lethality and its prevention by pretreatment, C57BL/6J mice (Example 13); format: in vivo; conditions: mouse, in vivo, ip
Source text: as §3

[18] = adriamycin acute lethality and its prevention by pretreatment, DBA/2J mice (Example 13); conditions: mouse, in vivo, ip
Protocol: as §4

[19] = test system: embryonic hippocampal neuronal and neuronal/glial cultures; conditions: extended period of co-incubation; cited from earlier work
[20] = test system: neuronal cultures; conditions: Dichlorofluorescein and increased intracellular free calcium Fura-2; cited from earlier work
[21] = test system: rat brains; conditions: infused into rat brains; cited from earlier work
[22] = test system: neurotoxicity; conditions: cited from earlier work
[23] = test system: glutamine synthetase (GS); experiment: inactivation of glutamine synthetase by βAP fragments in cytosolic fractions of neocortex (Example 11); format: biochemical, gerbil; conditions: 10 min incubation prior to assay
Protocol: as §1

[24] = test system: creatine kinase (CK); experiment: inactivation of creatine kinase by βAP fragments in cytosolic fractions of neocortex (Example 11); format: biochemical, gerbil; conditions: 10 min incubation prior to assay
Protocol: as §1

For CC(C)(C)[N+]([O-])=Cc1ccccc1S(=O)(=O)O [Compound 2-sulfo, N-tert-butyl-α-(2-sulfophenyl) nitrone], the “Neuronal nuclei/100 micron field” value ([1]; 50 mg/kg i.p.) was 0.68 Neuronal nuclei/100 micron field, the “Neuronal nuclei/100 micron field” value ([1]; 100 mg/kg i.p.) was 0.78 Neuronal nuclei/100 micron field and the “Neuronal nuclei/100 micron field” value ([1]; 320 mg/kg i.p.) was 0.81 Neuronal nuclei/100 micron field. The “Neuronal nuclei/100 micron field” value ([2]; 3.2 mg/kg i.p.) was 0.73 Neuronal nuclei/100 micron field, the “Neuronal nuclei/100 micron field” value ([2]; 10 mg/kg i.p.) was 0.68 Neuronal nuclei/100 micron field and the “Neuronal nuclei/100 micron field” value ([2]; 32 mg/kg i.p.) was 0.73 Neuronal nuclei/100 micron field. The “Neuronal nuclei/100 micron field” value ([2]; 50 mg/kg i.p.) was 1.01 Neuronal nuclei/100 micron field, the “Neuronal nuclei/100 micron field” value ([2]; 100 mg/kg i.p.) was 0.93 Neuronal nuclei/100 micron field and the “Neuronal nuclei/100 micron field” value ([2]; 320 mg/kg i.p.) was 1.11 Neuronal nuclei/100 micron field. The “Neuronal nuclei/100 micron field” value ([2]; 1000 mg/kg i.p.) was 0.98 Neuronal nuclei/100 micron field.
For CC(C)(C)[N+]([O-])=Cc1cccc(S(=O)(=O)O)c1 [Compound 3-sulfo], the “Neuronal nuclei/100 micron field” value ([1]; 50 mg/kg i.p.) was 0.73 Neuronal nuclei/100 micron field, the “Neuronal nuclei/100 micron field” value ([1]; 100 mg/kg i.p.) was 1.09 Neuronal nuclei/100 micron field and the “Neuronal nuclei/100 micron field” value ([1]; 320 mg/kg i.p.) was 0.93 Neuronal nuclei/100 micron field. For the same compound, the “Neuronal nuclei/100 micron field” value ([2]; 3.2 mg/kg i.p.) was 0.35 Neuronal nuclei/100 micron field, the “Neuronal nuclei/100 micron field” value ([2]; 10 mg/kg i.p.) was 0.81 Neuronal nuclei/100 micron field and the “Neuronal nuclei/100 micron field” value ([2]; 32 mg/kg i.p.) was 1.63 Neuronal nuclei/100 micron field. For the same compound, the “Neuronal nuclei/100 micron field” value ([2]; 50 mg/kg i.p.) was 1.63 Neuronal nuclei/100 micron field, the “Neuronal nuclei/100 micron field” value ([2]; 100 mg/kg i.p.) was 1.93 Neuronal nuclei/100 micron field and the “Neuronal nuclei/100 micron field” value ([2]; 320 mg/kg i.p.) was 1.78 Neuronal nuclei/100 micron field. For the same compound, the “Neuronal nuclei/100 micron field” value ([2]; 1000 mg/kg i.p.) was 1.58 Neuronal nuclei/100 micron field.
With CC(C)(C)[N+]([O-])=Cc1ccc(S(=O)(=O)O)cc1S(=O)(=O)O [Compound I] the “Infarct Volume” value ([3]; 1.0 mg/kg/hr i.v.) was 16.8 mm^3, the “Infarct Volume” value ([3]; 10 mg/kg/hr i.v.) was 12.7 mm^3 and the “Infarct Volume” value ([3]; 100 mg/kg/hr i.v.) was 8.3 mm^3. The “protection of CK against the effects of βAP fragments” value [4] was “complete protection”, the “protection of GS against the effects of βAP fragments” value [5] was “complete protection” and the “Neuronal nuclei/100 micron field” value ([1]; 32 mg/kg i.p.) was 1.83 Neuronal nuclei/100 micron field. The “Neuronal nuclei/100 micron field” value ([1]; 50 mg/kg i.p.) was 2.73 Neuronal nuclei/100 micron field, the “Neuronal nuclei/100 micron field” value ([1]; 100 mg/kg i.p.) was 3.41 Neuronal nuclei/100 micron field and the “Neuronal nuclei/100 micron field” value ([1]; 320 mg/kg i.p.) was 3.55 Neuronal nuclei/100 micron field. The “Neuronal nuclei/100 micron field” value ([1]; 1000 mg/kg i.p.) was 3.68 Neuronal nuclei/100 micron field, the lethality [6] was “no lethality” and the combined toxicity [7] was “did not produce any combined toxicity”. The “lethality protection (% survived)” value ([8]; 10 mg/kg) was 50%, the “lethality protection (% survived)” value ([8]; 32 mg/kg) was 75% and the “lethality protection (% survived)” value ([8]; 100 mg/kg) was 100%. For the same compound, the “lethality protection (% survived)” value ([8]; 320 mg/kg) was 100%, the lethality protection ([8]; Compound I: at high levels) was “complete protection” and the effect on survival [9] was “no effect on survival”. For the same compound, the “protection (infarct volume)” value [10] was “approximately 70%”, the “protection for neuronal loss (neuronal density)” value (shortened to “protection for neuronal loss”) ([11]; 0.5 mg/kg single dose i.v.) was 1.25 and the “protection for neuronal loss” value ([11]; 1.0 mg/kg single dose i.v.) was 1.75. The “protection for neuronal loss” value ([11]; 10 mg/kg single dose i.v.) was 2.43, the “effect on neuronal density in control gerbils” value ([11]; control gerbils without brain injury) was “Neither PBN nor Compound I. had an effect on neuronal density” and the “dose demonstrated to be possible” value [12] was ≥ 1000 mg/kg/h. For the same compound, the “Neuronal nuclei/100 micron field” value ([2]; 3.2 mg/kg i.p.) was 1.43 Neuronal nuclei/100 micron field, the “Neuronal nuclei/100 micron field” value ([2]; 10 mg/kg i.p.) was 2.57 Neuronal nuclei/100 micron field and the “Neuronal nuclei/100 micron field” value ([2]; 32 mg/kg i.p.) was 3.53 Neuronal nuclei/100 micron field. The “Neuronal nuclei/100 micron field” value ([2]; 50 mg/kg i.p.) was 4.11 Neuronal nuclei/100 micron field, the “Neuronal nuclei/100 micron field” value ([2]; 100 mg/kg i.p.) was 4.18 Neuronal nuclei/100 micron field and the “Neuronal nuclei/100 micron field” value ([2]; 320 mg/kg i.p.) was 4.23 Neuronal nuclei/100 micron field. For the same compound, the “Neuronal nuclei/100 micron field” value ([2]; 1000 mg/kg i.p.) was 4.11 Neuronal nuclei/100 micron field, the “Neuronal nuclei/100 micron field” value ([2]; 3200 mg/kg i.p.) was 4.18 Neuronal nuclei/100 micron field and the “protection against neuronal loss” value ([2]; high dose levels) was “complete protection against neuronal loss”. The “errors in 8-arm radial maze” value ([13]; 1.0 mg/kg/hr for 24 hours) was 14.63 errors, the “errors in 8-arm radial maze” value ([13]; 32 mg/kg/hr for 24 hours) was 7.19 errors and the “errors in 8-arm radial maze” value ([13]; 50 mg/kg/hr for 24 hours) was 4.28 errors. For the same compound, the “errors in 8-arm radial maze” value ([13]; 100 mg/kg/hr for 24 hours) was 4.11 errors, the error levels ([13]; high doses) was “error levels indistinguishable from those of nonischemic animals” and the solubility [14] was > 1000 mg/mL. For the same compound, the temperature decrease [15] was “no measurable temperature decrease”, the “maximally tolerated dose of adriamycin in combination” value ([16]; combination with adriamycin) was “marked increase in the maximally tolerated dose” and the effect on survival ([16]; up to 300 mg/kg i.p., without adriamycin, DBA/2J) was “no effect on survival”.
For COc1cccc2c1C(=O)c1c(O)c3c(c(O)c1C2=O)C[C@@](O)(C(=O)CO)C[C@@H]3O[C@H]1C[C@H](N)[C@H](O)[C@H](C)O1 [adriamycin], the LD50 [17] was 25 mg/kg and the LD50 [18] was 25 mg/kg.
In the case of βAP 1-40: beta amyloid peptide 1-40, the cytotoxicity [19] is listed as “produces cytotoxicity”, the oxidative stress [20] is listed as “results in oxidative stress” and the “lesions in rat brains” value [21] is listed as “lesions are produced”.
For “βAP (25-35): proposed breakdown fragment of βAP; naturally occurring 25-35 fragment (GSNKGAIIGLM; Amyloid-beta protein 42; UniProt P05067 696-706, looked up, fragment)”, the neurotoxicity [22] is given as “neurotoxic”, the “inactivation of glutamine synthetase” value [23] is given as “dose-related inactivation” and the “inactivation of creatine kinase” value [24] is given as “dose-related inactivation”.
